Results from US20230015823A1, “METHODS OF ADMINISTERING VOXELOTOR” (Global Blood Therapeutics, Inc., priority 2019, published 2023).

Tests used:
[1] = Excretion after administration of radiolabeled voxelotor; format: in vivo
Source text: Following the administration of radiolabeled voxelotor, approximately 62.6% of the dose and its metabolites are excreted into feces (33.3% unchanged) and 35.5% in urine (0.08% unchanged).

[2] = PK in patients with HbSC genotype vs HbSS genotype; settings: human, in vivo
[3] = Clinical trials experience (HOPE trial): safety of OXBRYTA; format: in vivo, human
Experimental: The safety of OXBRYTA was evaluated in the HOPE trial based upon 88 patients who received OXBRYTA 1,500 mg and 91 patients who received placebo orally once daily [see Clinical Studies (14)]. Seventy-four patients received OXBRYTA 1,500 mg once daily for ≥24 weeks and 65 patients for ≥48 weeks.
In patients who received OXBRYTA 1,500 mg once daily the median age was 24 years (range: 12-59); 65% female; 66% Black or African American and 23% Arab/Middle Eastern; and 65% receiving hydroxyurea at baseline.

[4] = PK in specific populations (age, sex, body weight, pediatric, renal impairment); format: in vivo, human
Experimental: The pharmacokinetic parameters of voxelotor were similar in pediatric patients 12 to <17 years and adults.
Following a single 900 mg dose of voxelotor, whole blood exposures in subjects with severe renal impairment (eGFR<30 mL/min/1.73 m^2) were 25% lower compared to healthy controls.
OXBRYTA has not been evaluated in patients with end stage renal disease requiring dialysis.

MATE2-K = MATE2-K (Homo sapiens, UniProt Q86VL8); assay: In vitro transporter studies: MATE2-K; format: in vitro ADME
BCRP = BCRP (Homo sapiens, UniProt Q9UNQ0); assay: In vitro transporter studies: BCRP; format: in vitro ADME
Chain of BCRP (Q9UNQ0 whole entry): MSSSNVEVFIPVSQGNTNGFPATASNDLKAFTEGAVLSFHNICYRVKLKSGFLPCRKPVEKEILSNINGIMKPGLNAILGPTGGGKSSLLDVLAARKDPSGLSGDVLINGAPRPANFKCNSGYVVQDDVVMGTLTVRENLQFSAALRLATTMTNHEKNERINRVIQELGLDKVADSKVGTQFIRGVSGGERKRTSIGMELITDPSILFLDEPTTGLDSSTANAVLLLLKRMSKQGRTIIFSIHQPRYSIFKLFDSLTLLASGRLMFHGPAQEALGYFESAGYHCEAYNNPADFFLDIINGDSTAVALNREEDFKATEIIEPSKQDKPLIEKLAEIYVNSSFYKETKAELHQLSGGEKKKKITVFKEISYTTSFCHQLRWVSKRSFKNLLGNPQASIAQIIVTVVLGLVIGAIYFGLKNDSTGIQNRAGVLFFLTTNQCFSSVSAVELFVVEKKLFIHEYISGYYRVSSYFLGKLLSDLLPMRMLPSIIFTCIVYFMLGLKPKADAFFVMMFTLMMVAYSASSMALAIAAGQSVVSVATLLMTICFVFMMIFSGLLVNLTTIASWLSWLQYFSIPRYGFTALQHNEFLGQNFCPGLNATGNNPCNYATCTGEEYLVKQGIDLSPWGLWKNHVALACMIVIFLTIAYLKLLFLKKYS

hemoglobin S (HbS) = hemoglobin S (HbS) (Homo sapiens, UniProt P69905); assay: Mechanism of action: binding to HbS and HbS polymerization
OATP1B1 = OATP1B1 (Homo sapiens, UniProt Q9Y6L6); assay: In vitro transporter studies: OATP1B1; format: in vitro ADME
Chain of OATP1B1 (Q9Y6L6 whole entry): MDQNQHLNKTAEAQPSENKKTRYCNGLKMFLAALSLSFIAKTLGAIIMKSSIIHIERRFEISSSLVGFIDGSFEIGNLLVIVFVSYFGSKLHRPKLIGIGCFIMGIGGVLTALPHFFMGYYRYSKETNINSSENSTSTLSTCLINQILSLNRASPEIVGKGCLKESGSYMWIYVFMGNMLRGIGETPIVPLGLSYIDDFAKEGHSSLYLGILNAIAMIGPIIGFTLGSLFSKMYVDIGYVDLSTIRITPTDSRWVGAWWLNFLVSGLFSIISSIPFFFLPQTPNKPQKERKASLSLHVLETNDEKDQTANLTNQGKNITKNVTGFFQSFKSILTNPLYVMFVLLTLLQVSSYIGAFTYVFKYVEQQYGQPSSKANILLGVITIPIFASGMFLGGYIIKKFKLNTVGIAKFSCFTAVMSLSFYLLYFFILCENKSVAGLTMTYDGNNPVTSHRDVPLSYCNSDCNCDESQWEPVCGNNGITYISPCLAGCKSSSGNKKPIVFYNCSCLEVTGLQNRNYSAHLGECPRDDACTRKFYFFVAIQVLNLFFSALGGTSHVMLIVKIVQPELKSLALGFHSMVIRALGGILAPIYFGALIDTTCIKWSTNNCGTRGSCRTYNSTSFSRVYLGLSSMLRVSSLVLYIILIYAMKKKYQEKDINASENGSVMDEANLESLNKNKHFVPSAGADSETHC

OCT2 = OCT2 (Homo sapiens, UniProt O15244); assay: In vitro transporter studies: OCT2; format: in vitro ADME
pregnant rats = assay: Pre- and postnatal development study in pregnant rats; format: in vivo, rat
Experimental: In a pre- and postnatal development study, voxelotor was administered orally to pregnant rats at 15, 50 and 250 mg/kg/day (gestation day 6 through lactation day 20). Maternal gestational body weights were decreased at 250 mg/kg/day, which continued to the end of lactation.

CYP2D6 = CYP2D6 (Homo sapiens, UniProt P10635)
[5] = Probe substrate study in healthy subjects: voxelotor exposure and safety; format: in vivo, human; settings: alone and in combination with caffeine, warfarin sodium, omeprazole and midazolam hydrochloride
Experimental: (§1) During Period 1, subjects received a single dose of caffeine 100 mg, warfarin sodium 10 mg+vitamin K 10 mg, omeprazole 20 mg, and midazolam hydrochloride 2 mg on Day 1. During Period 2, subjects received voxelotor 900 mg QD on Days 1 and 2 followed by 600 mg QD on Day 3, a single dose of caffeine 100 mg, warfarin sodium 10 mg+vitamin K 10 mg, omeprazole 20 mg, and midazolam hydrochloride 2 mg on Day 4, and voxelotor 600 mg QD on Days 4 through 7.
(§2) Whole blood and plasma concentrations of voxelotor and plasma concentrations of caffeine, paraxanthine, S-warfarin, omeprazole, 5-hydroxyomeprazole, midazolam, and 1-hydroxymidazolam were determined using validated assays.

CYP1A2 = CYP1A2 (Homo sapiens, UniProt P05177); assay: Effect of voxelotor on PK of CYP1A2 probe substrate caffeine in healthy subjects; format: in vivo
Chain of CYP1A2 (P05177 whole entry): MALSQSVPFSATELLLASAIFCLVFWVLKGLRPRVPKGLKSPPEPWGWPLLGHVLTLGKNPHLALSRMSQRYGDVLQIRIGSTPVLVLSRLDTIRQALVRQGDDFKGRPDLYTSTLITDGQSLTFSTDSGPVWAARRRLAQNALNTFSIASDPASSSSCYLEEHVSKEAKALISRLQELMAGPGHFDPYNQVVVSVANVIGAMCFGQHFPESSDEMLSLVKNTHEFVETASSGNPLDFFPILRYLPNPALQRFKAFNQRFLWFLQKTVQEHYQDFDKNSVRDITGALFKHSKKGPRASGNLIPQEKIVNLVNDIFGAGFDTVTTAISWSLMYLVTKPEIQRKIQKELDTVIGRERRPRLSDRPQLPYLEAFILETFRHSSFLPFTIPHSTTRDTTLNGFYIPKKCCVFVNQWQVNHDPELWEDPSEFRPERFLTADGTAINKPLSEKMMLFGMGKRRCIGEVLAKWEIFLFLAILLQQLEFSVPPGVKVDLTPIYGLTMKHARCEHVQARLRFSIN
Experimental: as §1, §2

BSEP = BSEP (Homo sapiens, UniProt O95342); assay: In vitro transporter studies: BSEP; format: in vitro ADME
Chain of BSEP (O95342 whole entry): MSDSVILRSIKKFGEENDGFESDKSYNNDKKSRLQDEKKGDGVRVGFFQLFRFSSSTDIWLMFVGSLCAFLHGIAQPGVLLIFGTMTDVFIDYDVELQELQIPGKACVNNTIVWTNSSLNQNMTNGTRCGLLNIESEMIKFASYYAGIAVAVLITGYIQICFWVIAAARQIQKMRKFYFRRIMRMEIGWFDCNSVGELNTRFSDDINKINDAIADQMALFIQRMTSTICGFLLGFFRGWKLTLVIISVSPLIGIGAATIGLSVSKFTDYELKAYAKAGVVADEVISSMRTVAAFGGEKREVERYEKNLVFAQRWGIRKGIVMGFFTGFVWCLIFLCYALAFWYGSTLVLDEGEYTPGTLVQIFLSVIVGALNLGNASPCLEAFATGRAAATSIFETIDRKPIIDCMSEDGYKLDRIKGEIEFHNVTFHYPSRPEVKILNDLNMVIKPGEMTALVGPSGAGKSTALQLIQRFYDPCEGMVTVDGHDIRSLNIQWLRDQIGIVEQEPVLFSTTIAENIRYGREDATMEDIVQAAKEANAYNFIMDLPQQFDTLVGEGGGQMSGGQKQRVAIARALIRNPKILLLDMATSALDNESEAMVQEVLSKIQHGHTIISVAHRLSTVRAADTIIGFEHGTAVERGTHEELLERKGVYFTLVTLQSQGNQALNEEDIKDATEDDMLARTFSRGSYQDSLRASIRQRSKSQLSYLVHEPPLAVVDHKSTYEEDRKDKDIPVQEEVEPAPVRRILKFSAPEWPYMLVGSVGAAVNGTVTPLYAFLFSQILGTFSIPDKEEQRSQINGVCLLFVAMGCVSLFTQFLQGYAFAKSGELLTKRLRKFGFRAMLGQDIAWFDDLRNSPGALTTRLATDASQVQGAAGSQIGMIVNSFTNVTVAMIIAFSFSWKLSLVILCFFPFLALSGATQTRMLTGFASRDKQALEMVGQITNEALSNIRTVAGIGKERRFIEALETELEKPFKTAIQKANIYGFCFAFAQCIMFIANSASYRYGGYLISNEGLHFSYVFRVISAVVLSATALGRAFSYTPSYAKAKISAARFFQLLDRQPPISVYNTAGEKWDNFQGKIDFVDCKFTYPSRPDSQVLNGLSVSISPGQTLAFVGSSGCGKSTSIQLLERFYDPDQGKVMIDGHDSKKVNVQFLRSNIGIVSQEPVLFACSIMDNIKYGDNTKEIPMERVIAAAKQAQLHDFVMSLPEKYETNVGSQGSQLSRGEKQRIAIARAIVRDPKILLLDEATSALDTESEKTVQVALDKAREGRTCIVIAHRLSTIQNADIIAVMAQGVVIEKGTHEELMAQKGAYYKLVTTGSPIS

OAT3 = OAT3 (Homo sapiens, UniProt Q8TCC7); assay: In vitro transporter studies: OAT3; format: in vitro ADME
OATP1B3 = OATP1B3 (Homo sapiens, UniProt Q9NPD5); assay: In vitro transporter studies: OATP1B3; format: in vitro ADME
Chain of OATP1B3 (Q9NPD5 whole entry): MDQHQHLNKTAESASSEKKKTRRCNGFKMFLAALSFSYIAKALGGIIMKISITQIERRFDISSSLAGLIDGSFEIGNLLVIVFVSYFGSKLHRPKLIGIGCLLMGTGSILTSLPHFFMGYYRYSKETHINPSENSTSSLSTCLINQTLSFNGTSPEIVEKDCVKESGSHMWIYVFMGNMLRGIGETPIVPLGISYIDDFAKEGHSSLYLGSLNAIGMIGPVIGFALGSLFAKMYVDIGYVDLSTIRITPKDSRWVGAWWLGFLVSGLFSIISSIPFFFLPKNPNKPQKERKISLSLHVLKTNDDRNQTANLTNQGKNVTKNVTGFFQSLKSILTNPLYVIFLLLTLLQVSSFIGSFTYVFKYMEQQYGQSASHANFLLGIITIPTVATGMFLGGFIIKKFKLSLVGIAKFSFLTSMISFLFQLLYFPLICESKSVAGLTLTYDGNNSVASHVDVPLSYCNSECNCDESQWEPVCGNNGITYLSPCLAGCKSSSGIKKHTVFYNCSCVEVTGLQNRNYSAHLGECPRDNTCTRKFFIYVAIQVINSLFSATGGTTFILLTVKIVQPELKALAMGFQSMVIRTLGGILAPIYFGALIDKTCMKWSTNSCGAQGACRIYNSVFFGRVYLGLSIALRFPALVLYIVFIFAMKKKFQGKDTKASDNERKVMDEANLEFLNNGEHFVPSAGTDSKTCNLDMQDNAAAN

OAT1 = OAT1 (Homo sapiens, UniProt Q4U2R8); assay: In vitro transporter studies: OAT1; format: in vitro ADME
CYP2C9 = biological target: T1, CYP2C9 (Homo sapiens, UniProt P11712); assay: Effect of voxelotor on PK of CYP2C9 probe substrate S-warfarin in healthy subjects; format: in vivo
T1 construct: endogenous in cells; host or cells: healthy subjects, in vivo
T1 sequence (P11712 whole entry): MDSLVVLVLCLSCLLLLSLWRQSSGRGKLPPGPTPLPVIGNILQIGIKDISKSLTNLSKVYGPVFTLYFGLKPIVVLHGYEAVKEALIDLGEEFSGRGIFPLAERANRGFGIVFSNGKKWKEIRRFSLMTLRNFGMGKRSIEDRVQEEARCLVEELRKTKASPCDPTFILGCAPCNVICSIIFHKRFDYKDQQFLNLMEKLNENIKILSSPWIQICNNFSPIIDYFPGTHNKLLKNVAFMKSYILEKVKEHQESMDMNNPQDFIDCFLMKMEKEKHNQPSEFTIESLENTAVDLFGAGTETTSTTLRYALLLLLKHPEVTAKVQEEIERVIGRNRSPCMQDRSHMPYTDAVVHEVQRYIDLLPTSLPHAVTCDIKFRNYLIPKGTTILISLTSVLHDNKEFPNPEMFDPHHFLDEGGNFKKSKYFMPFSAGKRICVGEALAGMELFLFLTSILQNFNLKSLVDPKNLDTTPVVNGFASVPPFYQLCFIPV
Experimental: as §1, §2

OATP1A2 = OATP1A2 (Homo sapiens, UniProt P46721); assay: In vitro transporter studies: OATP1A2; format: in vitro ADME
CYP2B6 = CYP2B6 (Homo sapiens, UniProt P20813); assay: In vitro studies: CYP2B6; format: in vitro ADME
Chain of CYP2B6 (P20813 whole entry): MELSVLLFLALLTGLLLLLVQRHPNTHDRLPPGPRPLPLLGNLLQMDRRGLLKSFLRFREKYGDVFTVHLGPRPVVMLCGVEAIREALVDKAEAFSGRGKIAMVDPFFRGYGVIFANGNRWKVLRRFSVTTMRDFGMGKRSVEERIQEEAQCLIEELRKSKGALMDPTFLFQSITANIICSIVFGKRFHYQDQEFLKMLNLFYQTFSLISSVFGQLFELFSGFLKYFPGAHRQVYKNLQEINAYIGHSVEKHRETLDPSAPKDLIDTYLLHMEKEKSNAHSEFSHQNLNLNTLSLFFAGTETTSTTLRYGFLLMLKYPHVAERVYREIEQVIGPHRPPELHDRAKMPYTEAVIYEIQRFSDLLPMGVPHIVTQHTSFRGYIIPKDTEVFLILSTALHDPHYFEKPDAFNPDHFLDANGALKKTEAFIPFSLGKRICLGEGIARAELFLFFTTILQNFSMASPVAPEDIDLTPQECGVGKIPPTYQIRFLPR

[6] = healthy subjects, multiple doses of voxelotor 900/600 mg QD

## CC(C)n1nccc1-c1ncccc1COc1cccc(O)c1C=O [voxelotor, 2-hydroxy-6-((2-(1-isopropyl-1H-pyrazol-5-yl)pyridin-3-yl)methoxy)benzaldehyde]
[1]
  dose and its metabolites excreted in urine: 35.5%
  dose and its metabolites excreted into feces: approximately 62.6%
  dose excreted unchanged in urine: 0.08%
  dose excreted unchanged into feces: 33.3%
[2]
  steady state plasma AUC higher in HbSC vs HbSS genotype patients: 23%
  steady state plasma Cmax higher in HbSC vs HbSS genotype patients: 15%
  steady state whole blood AUC higher in HbSC (n=11) vs HbSS (n=220) genotype patients: 50%
  steady state whole blood Cmax higher in HbSC vs HbSS genotype patients: 45%
[3]; HOPE, 1,500 mg (N = 88)
  Adverse reaction: Abdominal Pain (grouped PTs): 17 (19%) n (%)
  Adverse reaction: Diarrhea: 18 (20%) n (%)
  Adverse reaction: Fatigue: 12 (14%) n (%)
  Adverse reaction: Headache: 23 (26%) n (%)
  Adverse reaction: Nausea: 15 (17%) n (%)
  Adverse reaction: Pyrexia: 11 (12%) n (%)
  Adverse reaction: Rash (grouped PTs): 12 (14%) n (%)
[3]; HOPE, 1,500 mg once daily, 3/88
  patients with serious adverse reactions: 3%
[3]; HOPE, 1,500 mg once daily, 4/88
  permanent discontinuation due to an adverse reaction (Grades 1-4): 5%
[3]; HOPE, 36/88
  dosage modifications (dose reduction or dosing interruption) due to an adverse reaction: 41%
[3]; patients treated
  patients with serious hypersensitivity reactions: < 1%
[4]; in vivo
  differences in pharmacokinetics based on age (12 to 59 years), sex, body weight (28 to 135 kg), or mild to severe renal impairment (CLcr 15-89 mL/min): No clinically significant differences
  effect of renal function on the excretion of voxelotor: no clinically significant effect
  pharmacokinetic parameters in pediatric patients 12 to <17 years vs adults: similar
[4]; severe renal impairment (eGFR<30 mL/min/1.73 m^2), single 900 mg dose
  whole blood exposures lower compared to healthy controls: 25%
[4]; severe renal impairment, single 900 mg dose
  unbound plasma concentrations vs healthy controls: comparable
MATE2-K
  inhibition of MATE2-K: not an inhibitor
BCRP
  inhibition of BCRP: not an inhibitor
  substrate of BCRP: not a substrate
Hemoglobin S (HbS)
  inhibition of HbS polymerization: dose-dependent inhibition of HbS polymerization
OATP1B1
  inhibition of OATP1B1: not an inhibitor
  substrate of OATP1B1: not a substrate
OCT2
  inhibition of OCT2: not an inhibitor
Pregnant rats; maternal dose 250 mg/kg/day, throughout lactation, weaning and maturation
  findings in offspring: reduced survival and reduced body weights
Pregnant rats; pregnant rats, 250 mg/kg/day oral, gestation day 6 through lactation day 20
  maternal gestational body weights: decreased
Pregnant rats; rats, maternal dose 250 mg/kg/day
  exposure at 250 mg/kg/day relative to exposure in patients at the recommended dose: approximately 2.8 times
CYP2D6
  inhibition of CYP2D6 in vivo: not
[5]
  safety and tolerability: safe and well tolerated
CYP1A2; [6]
  effect of voxelotor on PK of CYP1A2 probe substrate (caffeine): no clinically meaningful effect
CYP1A2; human, in vivo
  inhibition of CYP1A2 in vivo: not
BSEP
  inhibition of BSEP: not an inhibitor
  substrate of BSEP: not a substrate
OAT3
  inhibition of OAT3: not an inhibitor
OATP1B3
  inhibition of OATP1B3: not an inhibitor
  substrate of OATP1B3: not a substrate
OAT1
  inhibition of OAT1: not an inhibitor
CYP2C9; [6]
  effect of voxelotor on PK of CYP2C9 probe substrate (S-warfarin): no clinically meaningful effect
CYP2C9; human, in vivo
  inhibition of CYP2C9 in vivo: not
OATP1A2
  substrate of OATP1A2: not a substrate
CYP2B6
  induction of CYP2B6: inducer
  inhibition of CYP2B6: reversible and time-dependent inhibitor
